Columns and labels:
[1] = system: acnC disrupted strain (PA01*); test: Growth on various carbon sources; type: cell-based, P. aeruginosa; settings: substance used as carbon source
Excerpt: (§1) When tested for growth on various carbon sources, no difference was observed when glucose, glutamate, citrate, isocitrate, succinate, acetate, pyruvate, butyrate, hexonate, or glyoxalate was used as a carbon source.

FRD1 [2] = test: Effect of ibuprofen on growth of FRD1 (absorbance at 600 nm); type: cell-based, P. aeruginosa; settings: Pseudomonas aeruginosa, 2 ml LB cultures, read-out: percent inhibition of growth
Description: Ibuprofen is known to generate propionic acid when metabolized and was thus tested for its ability to inhibit the growth of FRD1. Other propionate-generating compounds include certain α4β1 integrin antagonists described by DuPlantier, A. J., et al., Bioorg. Med. Chem. Let. (2001) 11:2593–2596. Using absorbance at 600 nm as the criterion, growth inhibition was detected at a concentration of 0.5 mg/ml of ibuprofen added to 2 ml LB cultures; the percent inhibition at this level was 19%. Inhibition increased in a dose-dependent manner to 72% at 5 mg/ml, and was similar at 10 mg/ml (73%).

[3] = system: PA01, FRD1 and mucoid clinical isolate strains (acnC or acnA disrupted); test: Growth on propanediol as carbon source; type: cell-based, P. aeruginosa; settings: all strains
Excerpt: (§2) In addition to PA01, an additional mucosal strain, FRD1 with gentamicin resistance was subjected to disruption of the acnC gene, as was a mucoid clinical isolate. For comparison, aconitase A was also similarly disrupted. All of the strains behaved similarly in respect to their ability to grow on propanediol in the presence and absence of propionic acid.

FRD1 [4] = test: Reversal of propionate growth inhibition by TCA intermediates in M9 minimal media; type: cell-based, P. aeruginosa; settings: 0.4% propionate
Description: This effect was tested by supplementing M9 minimal media with various TCA cycle components in the presence of 0.4% propionate.

wildtype PA01 [5] = test: Growth in LB medium with 0.4% propionate; type: cell-based, P. aeruginosa
Description: (§3) The effect of the addition of 0.4% propionate to LB medium containing wildtype PA01, PA01*, and the more sensitive mucoid strain FRD1, was also tested.

PA01* [6] = test: Growth in LB medium with 0.4% propionate; type: cell-based, P. aeruginosa
Description: as §3

FRD1 [7] = test: Growth in LB medium with 0.4% propionate; type: cell-based, P. aeruginosa
Description: as §3

wildtype PA01 [8] = test: Propionate inhibition of growth; type: cell-based, P. aeruginosa; settings: 0.4% propionate
Excerpt: (§4) FRD1 is much more susceptible to propionate inhibition than wildtype PA01. While PA01 is able to grow on 0.4% propionate, inhibition of FRD1 growth occurs at levels of 0.1% propionate and inhibition is complete as low as 0.2% propionate in the medium.

FRD1 [9] = test: Propionate inhibition of growth; type: cell-based, P. aeruginosa; settings: in the medium
Excerpt: as §4

FRD1 cells = test: Attachment of cells to plastic tubes (absorbance at 570 nm); type: cell-based, P. aeruginosa; settings: as low as 0.1% propionate
Description: (§5) As mucoid production is necessary for attachment, the effect on mucoid production of addition of propionate can be tested by assessing the level of attachment of the cells to plastic tubes. This was measured as the absorbance at 570 nm of plastic tubes.

PA01 [10] = test: as above; type: cell-based, P. aeruginosa; settings: compared with FRD1
Description: as §5

PA01 wildtype = test: Growth on various carbon sources; type: cell-based, P. aeruginosa; settings: substance used as carbon source
Excerpt: as §1

PA01* [11] = test: Growth in TSBD plus 100 μM iron medium with propionate; type: cell-based, P. aeruginosa; settings: 0.05% propionate, with and without 50 mM glutamate, FIG. 3
[12] = system: PA01 with disrupted aconitase C gene; test: Growth on propanediol with added propionic acid; type: cell-based, P. aeruginosa; settings: propanediol medium
Excerpt: as §2

[13] = system: FRD1 with disrupted aconitase C gene; test: Growth on propanediol with added propionic acid; type: cell-based, P. aeruginosa; settings: propanediol medium
Excerpt: as §2

FRD1 [14] = test: Effect of propionate on antibiotic susceptibility (antibiotic discs); type: cell-based, P. aeruginosa; settings: 0.2% propionate
Description: (§6) The effect of various concentrations of propionate on the ability of antibiotics to curtail the growth of PA01 or FRD1 was tested. Levels of 0.2% propionate appeared to have no effect on PA01 growth in the presence of the antibiotics amikacin, carbenicillin, ciprofloxacin, tobramycin, and tetracycline. Growth was assured by the diameter of colonies formed in the presence of discs containing amikacin (AN-30), 30 μg, carbenicillin (CB-100), 100 μg, ciprofloxacin (CIP-5), 5 μg, tobramycin (NN-10), 10 μg, or tetracycline (TE-30), 30 μg.

PA01 [15] = test: as above; type: cell-based, P. aeruginosa; settings: 0.2% propionate; amikacin, carbenicillin, ciprofloxacin, tobramycin, tetracycline discs
Description: as §6

mucoid clinical isolates = test: Effect of propionate on growth of mucoid clinical isolates; type: cell-based; settings: low concentrations of propionate, FIG. 4, vs non-mucoid BH1 and revertant BAB

CCCCCC(=O)O [hexanoate, hexanoic acid]
difference in growth between wildtype and acnC disrupted strain [1]: no difference

CC(C)Cc1ccc(C(C)C(=O)O)cc1 (stereo not drawn) [ibuprofen, Ibuprofen]
inhibition at 500 µg/mL (FRD1 [2]; 0.5 mg/ml): 19% | inhibition at 5000 µg/mL (FRD1 [2]; 5 mg/ml): 72% | inhibition at 10000 µg/mL (FRD1 [2]; 10 mg/ml): 73%

OCCCO [1,3-propanediol]
ability to grow on carbon source [3]: less able to grow

O=C(O)CC(O)C(=O)O (stereo not drawn) [malate]
reversal of negative effects of propionate on growth (FRD1 [4]): successful

CCC(=O)O [propionate, propionic acid]
response of growth (wildtype PA01 [5]): does not respond | response of growth (PA01* [6]): diminished growth | response of growth (FRD1 [7]): diminished growth | growth on propionate (wildtype PA01 [8]): able to grow | propionate level at which inhibition of growth is complete (FRD1 [9]): 0.2% | propionate level at which inhibition of growth occurs (FRD1 [9]): 0.1% | effect on attachment to plastic tubes (FRD1 cells): diminish significantly | effect on attachment to plastic tubes (PA01 [10]): less dramatic | growth of wildtype on carbon source (PA01 wildtype): grow well | growth of acnC disrupted strain on carbon source [1]: did not grow | growth as compared to wildtype (PA01* [11]): growth is diminished | ability to grow after addition of propionic acid [12]: completely abolished | ability to grow after addition of propionic acid [13]: completely abolished | effect on growth inhibition by antibiotics (FRD1 [14]; CB-100 and CIP-5 discs): diminish the effect | effect on efficiency of antibiotics (FRD1 [14]; remaining antibiotics (amikacin, tobramycin, tetracycline)): little, if any, effect | effect on growth in the presence of antibiotics (PA01 [15]): no effect | growth inhibition (mucoid clinical isolates): substantial growth inhibition

CCCCC(=O)O [pentanoate, pentanoic acid]
growth of wildtype on carbon source (PA01 wildtype): grow well | growth of acnC disrupted strain on carbon source [1]: did not grow

O=C(O)CCC(=O)O [succinate]
difference in growth between wildtype and acnC disrupted strain [1]: no difference

O=CC(=O)O [glyoxalate]
difference in growth between wildtype and acnC disrupted strain [1]: no difference

CC(O)CO (stereo not drawn) [1,2-propanediol]
ability to grow on carbon source [3]: able to grow

O=C(O)CC(O)(CC(=O)O)C(=O)O [citrate]
difference in growth between wildtype and acnC disrupted strain [1]: no difference

N[C@@H](CCC(=O)O)C(=O)O [glutamate]
reversal of negative effects of propionate on growth (FRD1 [4]): successful | difference in growth between wildtype and acnC disrupted strain [1]: no difference

CC(=O)O [acetate]
reversal of negative effects of propionate on growth (FRD1 [4]): successful | difference in growth between wildtype and acnC disrupted strain [1]: no difference

From patent US7183100B2, “Aconitase” (priority 2003, dated 2007)
